Measurements from patent EP0560983B1, “New DNA sequence” (priority 1991, dated 1993).

Legend:
Format in all cases: biochemical, Brevibacterium sterolicum ATCC 21387
cholesterol oxidase II [1] = experiment: Influence of inhibitor on enzyme activity; settings: for Relative Activity (%): cholesterol oxidase II, inhibitor at 1 mM, activity in the absence of the inhibitor = 100; for Inhibition: whether cholesterol oxidase II is inhibited, in words
Text: (§1) (3) Working pH for activity: The working pH of cholesterol oxidase II is in a range of 5.0 to 7.5, whereas that of cholesterol oxidase I is in a range of 6.0 to 7.5. […]
(§2) (d) Based on the amount of hydrogen peroxide formed, the amount of oxygen consumed and identification of the reaction product as described in (a), (b) and (c), it is recognized that the enzyme of the present invention acts on specifically cholesterol, that cholesterol was oxidized into hydrogen peroxide and 4-cholesten-3-one; that is, this enzyme has a cholesterol oxidase activity. [drawing 2] wherein R represents [drawing 3] • II. Working pH range and stable pH range The working pH for the activity is in a range of 5.0 to 7.5. The working pH range was determined by assaying the activity at each pH (phosphate buffer, Tris-HCl buffer, sodium acetate buffer) after the reaction at 37°C for 5 minutes. […] The pH range is determined by treating the enzyme at 50°C for 60 minutes at each pH (phosphate buffer, Tris-HCl buffer, sodium acetate buffer) and then assaying the residual activity. Method for determination of titer The amount of enzyme which catalyzes the reaction of decomposing 1 µmole of cholesterol at 37°C for one minute in the presence of oxygen is defined as one unit. The titer is determined as follows. With shaking, the enzyme acts on cholesterol and 4-aminoantipyrine and phenol are reacted with the formed hydrogen peroxide in the presence of peroxidase to form quinoneimine pigment. Absorption of the thus formed quinoneimine pigment in the visible region is measured to determine the amount of hydrogen peroxide generated. Thus, the titer of the enzyme is determined. Hereafter specific activity is defined as activity per 1 mg of protein (unit/mg). Furthermore, an amount of enzyme protein is determined by absorbance at 280 nm (1 mg/mℓ when absorbance is 1). • (a) Principle The enzyme activity is determined by reacting hydrogen peroxide generated by the enzyme with 4-aminoantipyrine and phenol in the presence of peroxidase and quantitatively determining the formed quinoneimine pigment. The reaction is shown by the following equations (1) and (2). [drawing 4] wherein R represents [drawing 5] [drawing 6] • (b) Procedure In a test tube, there are charged 1.0 ml of 3 mM cholesterol solution (which is prepared by adding 6 mℓ of 50 mM cholesterol ethanol solution to 94 mℓ of 1.05% Triton X-100 solution with stirring, heating the mixture for 10 minutes on a water bath, cooling the mixture in water, adding distilled water to the mixture until the total volume is 100 mℓ; and is not allowed to be used 30 minutes or longer after preparation), 0.3 mℓ of 50 mM sodium bilate solution, 0.3 mℓ of 0.5 mM potassium-sodium phosphate buffer (pH 6.6), 0.5 mℓ of 42 mM phenol, 0.5 mℓ of 2.4 mM 4-aminoantipyrine and 0.2 mℓ of 115 units/mℓ horseradish-derived peroxidase. The mixture is agitated. After maintaining at 37°C for 3 mintues, 0.2 mℓ of an enzyme solution is added to the mixture. With shaking, the reaction is carried out at 37°C for 5 to 10 minutes. Then, absorbance is measured at 500 nm (OD 500 nm). • (c) Calculation of titer One unit of cholesterol oxidase II corresponds to an enzyme activity which decomposes 1 µmole of cholesterol at 37°C for 1 minute. On the other hand, it is reported that absorption coefficient of 1 mM quinoneimine is 5.33 [Clinical Chemistry, 20, 470 (1974)]. […]

cholesterol oxidase I [2] = target: T1, cholesterol oxidase I (Brevibacterium sterolicum, UniProt P22637); experiment: Influence of inhibitor on enzyme activity; settings: inhibitor at 1 mM, activity in the absence of the inhibitor = 100
T1 construct: host or cells: Brevibacterium sterolicum ATCC 21387 (origin of the enzyme; how it was prepared is not described)
Text: as §1, §2

cholesterol oxidase II [3] = experiment: Substrate specificity (relative activity on each substrate); settings: for Relative Activity (%): activity of cholesterol oxidase II on each substrate, cholesterol = 100; for Substrate specificity: whether cholesterol oxidase II acts on the substrate, in words
Experimental: (§3) The working pH range was determined by assaying the activity at each pH (phosphate buffer, Tris-HCl buffer, sodium acetate buffer) after the reaction at 37°C for 5 minutes. […] The pH range is determined by treating the enzyme at 50°C for 60 minutes at each pH (phosphate buffer, Tris-HCl buffer, sodium acetate buffer) and then assaying the residual activity. Method for determination of titer The amount of enzyme which catalyzes the reaction of decomposing 1 µmole of cholesterol at 37°C for one minute in the presence of oxygen is defined as one unit. The titer is determined as follows. With shaking, the enzyme acts on cholesterol and 4-aminoantipyrine and phenol are reacted with the formed hydrogen peroxide in the presence of peroxidase to form quinoneimine pigment. Absorption of the thus formed quinoneimine pigment in the visible region is measured to determine the amount of hydrogen peroxide generated. Thus, the titer of the enzyme is determined. Hereafter specific activity is defined as activity per 1 mg of protein (unit/mg). […] The mixture is agitated. After maintaining at 37°C for 3 mintues, 0.2 mℓ of an enzyme solution is added to the mixture. With shaking, the reaction is carried out at 37°C for 5 to 10 minutes. Then, absorbance is measured at 500 nm (OD 500 nm). • (c) Calculation of titer One unit of cholesterol oxidase II corresponds to an enzyme activity which decomposes 1 µmole of cholesterol at 37°C for 1 minute. […] Optimum temperature The optimum temperature at a pH of 6.6 for 3 minutes of the reaction time was examined. […] After heat treatment at pH of 7.0 for 60 minutes in 0.05 M phosphate buffer, the residual activity was determined. […] Reaction rates of the two enzymes were measured in various concentrations of cholesterol. […] Michealis' constant was determined from the Line weaver-Burk plot [refer to J. Am. […] Determination of the amino acid sequence and nucleotide sequence of cholesterol oxidase II Cholesterol oxidase II may be divided into 2 subunits, using reverse phase high performance liquid chromatography. Each subunit is digested with a protease, for example trypsin, and the digested subunit is further fractionated using high performance liquid chromatography, to obtain protease-digested fragments. The amino acid sequence of each digested fragment may be analyzed according to the conventional method, with the amino acid sequencer.

cholesterol oxidase I [4] = target: T1, cholesterol oxidase I; experiment: as above; settings: activity of cholesterol oxidase I on each substrate; cholesterol = 100
Experimental: as §3

T1 sequence (P22637 46-552): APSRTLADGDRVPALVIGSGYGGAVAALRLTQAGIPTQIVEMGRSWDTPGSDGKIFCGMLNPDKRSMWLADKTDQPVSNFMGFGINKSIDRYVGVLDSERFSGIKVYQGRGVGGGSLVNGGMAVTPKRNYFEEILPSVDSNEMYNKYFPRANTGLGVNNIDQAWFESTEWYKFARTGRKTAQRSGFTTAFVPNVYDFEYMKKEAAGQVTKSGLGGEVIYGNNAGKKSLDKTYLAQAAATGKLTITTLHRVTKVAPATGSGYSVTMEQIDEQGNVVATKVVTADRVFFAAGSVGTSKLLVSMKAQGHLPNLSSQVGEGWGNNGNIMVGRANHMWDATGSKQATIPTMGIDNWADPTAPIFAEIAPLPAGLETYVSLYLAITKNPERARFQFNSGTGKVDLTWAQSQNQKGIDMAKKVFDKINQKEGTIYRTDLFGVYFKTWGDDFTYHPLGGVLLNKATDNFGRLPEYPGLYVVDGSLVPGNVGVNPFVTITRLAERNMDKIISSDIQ

Row | SMILES | Relative Activity (%) (cholesterol oxidase II [1]) | Inhibition (cholesterol oxidase II [1]) | Relative Activity (%) (cholesterol oxidase I [2]) | Relative Activity (%) (cholesterol oxidase II [3]) | Substrate specificity (cholesterol oxidase II [3]) | Relative Activity (%) (cholesterol oxidase I [4])
1 | O=[N+]([O-])[O-].[Ag+] [AgNO3, silver nitrate] | 1.0% | inhibited | 0% |  |  | 
2 | C[C@]12CC[C@@H](O)C[C@@H]1CC[C@@H]1[C@@H]2CC[C@]2(C)C(=O)CC[C@@H]12 [Androsterone] |  |  |  | 0% | does not act on | 0%
3 | CCCCC/C=C\C/C=C\CCCCCCCC(=O)O[C@H]1CC[C@@]2(C)C(=CC[C@H]3[C@@H]4CC[C@H]([C@H](C)CCCC(C)C)[C@@]4(C)CC[C@@H]32)C1 [Cholesterol linoleate] |  |  |  | 0% | does not act on | 0%
4 | CC(C)CCC[C@@H](C)[C@H]1CC[C@H]2[C@@H]3CC=C4C[C@@H](O)CC[C@]4(C)[C@H]3CC[C@]12C [Cholesterol, 5-cholesten-3-β-ol] |  |  |  | 100% | acts on | 100%
5 | C[C@]12CC[C@H](O)CC1=CC[C@@H]1[C@@H]2CC[C@]2(C)C(=O)CC[C@@H]12 [Dehydroisoandrosterone] |  |  |  | 13.0% | acts on | 41.4%
6 | C[C@]12CC[C@@H]3c4ccc(O)cc4CC[C@H]3[C@@H]1CC[C@@H]2O [Estradiol] |  |  |  |  |  | 0%
7 | CC(C)=CCC[C@@H](C)[C@H]1CC[C@@]2(C)C3=C(CC[C@]12C)[C@@]1(C)CC[C@H](O)C(C)(C)[C@@H]1CC3 [Lanosterol] |  |  |  | 0% | does not act on | 0%
8 | CC(=O)[C@H]1CC[C@H]2[C@@H]3CC=C4C[C@@H](O)CC[C@]4(C)[C@H]3CC[C@]12C [Pregnenolone] |  |  |  | 32.9% | acts on | 22.4%
9 | CC[C@H](/C=C/[C@@H](C)[C@H]1CC[C@H]2[C@@H]3CC=C4C[C@@H](O)CC[C@]4(C)[C@H]3CC[C@]12C)C(C)C [Stigmasterol] |  |  |  | 64.4% | acts on | 10.0%
10 | C=C1CC[C@H](O)C/C1=C/C=C1\CCC[C@]2(C)[C@@H]([C@H](C)CCCC(C)C)CC[C@@H]12 [Vitamin D3] |  |  |  | 0% | does not act on | 0%
11 | Oc1cccc2cccnc12 [o-Hydroxyquinoline] | 91.3% | inhibited |  |  |  | 
12 | O=S(=O)(O)c1cc[c]([Hg][Cl])cc1 [p-Chloromercury benzenesulfonate] | 87.0% | inhibited |  |  |  | 
13 | CC[C@H](CC[C@@H](C)[C@H]1CC[C@H]2[C@@H]3CC=C4C[C@@H](O)CC[C@]4(C)[C@H]3CC[C@]12C)C(C)C [β-Sitosterol] |  |  |  | 82.0% | acts on | 19.7%
